Measurements published in the supplement of paper PMC4932681.

What was measured:
[1] = test system: BT-474 Tam1; experiment: drug sensitivity score (DSS) (DSS (dimensionless)); higher = more sensitive; extreme values may be limits of the assay; details: 4-OH-tamoxifen in medium 1 µM; 72 h
Method: (§1)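 FIMM FO2B library drugs were tested at 5 concentrations (10,000-fold range) for 72 h, with CellTiter-Glo viability normalised to DMSO and benzethonium chloride controls. The Drug Sensitivity Score (DSS) is computed from the fitted logistic dose-response curve (area-based; 0 = inactive). Resistant lines and the 'in 1µM tamoxifen' arms were tested in 1 µM 4-OH-tamoxifen.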

[2] = test system: BT-474 Tam2; experiment: as above; details: 4-OH-tamoxifen in medium 1 µM; 72 h
Method: as §1

[3] = test system: BT-474; experiment: as above; details: 72 h
Method: as §1

[4] = test system: MCF-7 Tam1; experiment: as above; details: 4-OH-tamoxifen in medium 1 µM; 72 h
Method: as §1

[5] = test system: MCF-7; experiment: as above; details: 72 h
Method: as §1

[6] = test system: T-47D Tam1; experiment: as above; details: 4-OH-tamoxifen in medium 1 µM; 72 h
Method: as §1

[7] = test system: T-47D Tam2; experiment: as above; details: 4-OH-tamoxifen in medium 1 µM; 72 h
Method: as §1

[8] = test system: T-47D; experiment: as above; details: 72 h
Method: as §1

[9] = test system: ZR-75-1 Tam1; experiment: as above; details: 4-OH-tamoxifen in medium 1 µM; 72 h
Method: as §1

[10] = test system: ZR-75-1 Tam2; experiment: as above; details: 4-OH-tamoxifen in medium 1 µM; 72 h
Method: as §1

[11] = test system: ZR-75-1; experiment: as above; details: 72 h
Method: as §1

[12] = test system: BT-474 Tam1; experiment: relative IC50 (midpoint of fitted logistic curve, plateau may be below 50% inhibition; CellTiter-Glo viability); higher = less potent; details: 4-OH-tamoxifen in medium 1 µM; 72 h
Method: (§2)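 FIMM FO2B library drugs were plated at 5 concentrations spanning a 10,000-fold range in 384-well plates. Cells were incubated for 72 h at 37 °C and viability was read by CellTiter-Glo, normalised to DMSO (0% inhibition) and 100 µM benzethonium chloride (100% inhibition). IC50 values come from logistic dose-response fits (Breeze pipeline). Tamoxifen-resistant lines and the 'in 1µM tamoxifen' parental arms were tested in medium with 1 µM 4-OH-tamoxifen.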

[13] = test system: BT-474 Tam2; experiment: as above; details: 4-OH-tamoxifen in medium 1 µM; 72 h
Method: as §2

[14] = test system: BT-474; experiment: as above; details: 72 h
Method: as §2

[15] = test system: MCF-7 Tam1; experiment: as above; details: 4-OH-tamoxifen in medium 1 µM; 72 h
Method: as §2

[16] = test system: MCF-7; experiment: as above; details: 72 h
Method: as §2

[17] = test system: T-47D Tam1; experiment: as above; details: 4-OH-tamoxifen in medium 1 µM; 72 h
Method: as §2

[18] = test system: T-47D; experiment: as above; details: 72 h
Method: as §2

[19] = test system: ZR-75-1 Tam1; experiment: as above; details: 4-OH-tamoxifen in medium 1 µM; 72 h
Method: as §2

[20] = test system: ZR-75-1 Tam2; experiment: as above; details: 4-OH-tamoxifen in medium 1 µM; 72 h
Method: as §2

[21] = test system: ZR-75-1; experiment: as above; details: 72 h
Method: as §2

How did the drug sensitivity score [1] turn out when CN(N=O)C(=O)N[C@@H](C=O)[C@@H](O)[C@H](O)[C@H](O)CO [Streptozocin] was run?
The drug sensitivity score was 0.

What about the drug sensitivity score [2] of the same compound?
The drug sensitivity score was 0.

And the drug sensitivity score ([3]; 4-OH-tamoxifen in medium 0 µM)?
Its drug sensitivity score is 0.

And the drug sensitivity score ([3]; 4-OH-tamoxifen in medium 1 µM)?
The drug sensitivity score was 0.

What about the drug sensitivity score [4] of the same compound?
Its drug sensitivity score is 0.

What about the drug sensitivity score ([5]; 4-OH-tamoxifen in medium 0 µM) of the same compound?
The drug sensitivity score was 0.

And the drug sensitivity score ([5]; 4-OH-tamoxifen in medium 1 µM)?
The drug sensitivity score was 0.

And the drug sensitivity score [6]?
Its drug sensitivity score is 0.

And the drug sensitivity score [7]?
The drug sensitivity score was 0.

What about the drug sensitivity score ([8]; 4-OH-tamoxifen in medium 0 µM) of the same compound?
The drug sensitivity score was 0.

What about the drug sensitivity score ([8]; 4-OH-tamoxifen in medium 1 µM) of the same compound?
The drug sensitivity score was 0.

And the drug sensitivity score [9]?
Its drug sensitivity score is 0.

What about the drug sensitivity score [10] of the same compound?
The drug sensitivity score was 0.

What about the drug sensitivity score ([11]; 4-OH-tamoxifen in medium 0 µM) of the same compound?
The drug sensitivity score was 0.

And the drug sensitivity score ([11]; 4-OH-tamoxifen in medium 1 µM)?
The drug sensitivity score was 0.

And the “relative IC50” value [12]?
Its value is over 10 µM.

And the “relative IC50” value [13]?
Its value is over 10 µM.

And the “relative IC50” value ([14]; 4-OH-tamoxifen in medium 0 µM)?
The value was over 10 µM.

What about the “relative IC50” value ([14]; 4-OH-tamoxifen in medium 1 µM) of the same compound?
Its value is over 10 µM.

What about the “relative IC50” value [15] of the same compound?
Its value is over 10 µM.

And the “relative IC50” value ([16]; 4-OH-tamoxifen in medium 0 µM)?
The value was over 10 µM.

And the “relative IC50” value ([16]; 4-OH-tamoxifen in medium 1 µM)?
The value was over 10 µM.

And the “relative IC50” value [17]?
The value was over 10 µM.

And the “relative IC50” value ([18]; 4-OH-tamoxifen in medium 0 µM)?
Its value is over 10 µM.

What about the “relative IC50” value ([18]; 4-OH-tamoxifen in medium 1 µM) of the same compound?
Its value is over 10 µM.

What about the “relative IC50” value [19] of the same compound?
Its value is over 10 µM.

And the “relative IC50” value [20]?
Its value is over 10 µM.

What about the “relative IC50” value ([21]; 4-OH-tamoxifen in medium 0 µM) of the same compound?
Its value is over 10 µM.

And the “relative IC50” value ([21]; 4-OH-tamoxifen in medium 1 µM)?
The value was over 10 µM.

O=S(=O)(c1cccc2cnccc12)N1CCCNCC1 [Fasudil  (HA-1077)] was tested. Which drug sensitivity score [1] did it give?
The drug sensitivity score was 6.87.

What about the drug sensitivity score [2] of the same compound?
The drug sensitivity score was 6.54.

And the drug sensitivity score ([3]; 4-OH-tamoxifen in medium 0 µM)?
The drug sensitivity score was 1.03.

And the drug sensitivity score ([3]; 4-OH-tamoxifen in medium 1 µM)?
Its drug sensitivity score is 5.24.

What about the drug sensitivity score [4] of the same compound?
The drug sensitivity score was 0.

What about the drug sensitivity score ([5]; 4-OH-tamoxifen in medium 0 µM) of the same compound?
Its drug sensitivity score is 0.328.

What about the drug sensitivity score ([5]; 4-OH-tamoxifen in medium 1 µM) of the same compound?
The drug sensitivity score was 0.

And the drug sensitivity score [6]?
The drug sensitivity score was 1.67.

What about the drug sensitivity score [7] of the same compound?
The drug sensitivity score was 1.06.

And the drug sensitivity score ([8]; 4-OH-tamoxifen in medium 0 µM)?
Its drug sensitivity score is 0.

What about the drug sensitivity score ([8]; 4-OH-tamoxifen in medium 1 µM) of the same compound?
Its drug sensitivity score is 0.739.

What about the drug sensitivity score [9] of the same compound?
The drug sensitivity score was 0.

What about the drug sensitivity score [10] of the same compound?
The drug sensitivity score was 0.

What about the drug sensitivity score ([11]; 4-OH-tamoxifen in medium 0 µM) of the same compound?
Its drug sensitivity score is 0.

What about the drug sensitivity score ([11]; 4-OH-tamoxifen in medium 1 µM) of the same compound?
Its drug sensitivity score is 0.

And the “relative IC50” value [12]?
Its value is over 50 µM.

What about the “relative IC50” value [13] of the same compound?
The value was over 50 µM.

And the “relative IC50” value ([14]; 4-OH-tamoxifen in medium 0 µM)?
The value was over 50 µM.

And the “relative IC50” value ([14]; 4-OH-tamoxifen in medium 1 µM)?
The value was over 50 µM.

And the “relative IC50” value [15]?
Its value is over 50 µM.

What about the “relative IC50” value ([16]; 4-OH-tamoxifen in medium 1 µM) of the same compound?
Its value is over 50 µM.

And the “relative IC50” value [17]?
The value was over 50 µM.

And the “relative IC50” value ([18]; 4-OH-tamoxifen in medium 0 µM)?
Its value is over 50 µM.

And the “relative IC50” value ([18]; 4-OH-tamoxifen in medium 1 µM)?
The value was over 50 µM.

And the “relative IC50” value [19]?
The value was over 50 µM.

What about the “relative IC50” value [20] of the same compound?
Its value is over 50 µM.

What about the “relative IC50” value ([21]; 4-OH-tamoxifen in medium 0 µM) of the same compound?
Its value is over 50 µM.

And the “relative IC50” value ([21]; 4-OH-tamoxifen in medium 1 µM)?
The value was over 50 µM.
